Test results taken from PubChem BioAssay (NCI).
Values joined by “and” are separate entries in the source; they are usually repeats but may differ in a detail not shown here. Equal entries are not always repeated.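 Growth conditions: 96-well plates. Treatment: test compound, 48 hours, 5 concentrations. Analysis: linear interpolation between bracketing concentrations; unreached endpoints set to highest concentration. GI50 = concentration required for 50% inhibition of growth. TGI marks complete inhibition of growth.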

How the values were obtained:
Assay in all cases: inhibition of tumour cell growth, NCI panel, 48 h
UO-31 renal = tested on: UO-31 renal
LXFL 529 NSCLC = tested on: LXFL 529 NSCLC
K-562 leukemia = tested on: K-562 leukemia
786-0 renal = tested on: 786-0 renal
NCI-H460 lung = tested on: NCI-H460 lung
NCI-H522 lung = tested on: NCI-H522 lung
OVCAR-5 ovarian = tested on: OVCAR-5 ovarian
CCRF-CEM leukemia = tested on: CCRF-CEM leukemia
SNB-78 CNS = tested on: SNB-78 CNS
A498 renal = tested on: A498 renal

SMILES | TGI (UO-31 renal) | TGI (LXFL 529 NSCLC) | TGI (K-562 leukemia) | TGI (786-0 renal) | TGI (NCI-H460 lung) | TGI (NCI-H522 lung) | TGI (OVCAR-5 ovarian) | TGI (CCRF-CEM leukemia) | TGI (SNB-78 CNS) | TGI (A498 renal) | GI50 (UO-31 renal) | GI50 (LXFL 529 NSCLC) | GI50 (786-0 renal) | GI50 (NCI-H460 lung) | GI50 (NCI-H522 lung) | GI50 (CCRF-CEM leukemia) | GI50 (SNB-78 CNS) | GI50 (A498 renal) | GI50 (K-562 leukemia) | GI50 (OVCAR-5 ovarian)
O=C1c2ccccc2C(=O)c2c(NCCCNCCO)ccc(NCCCNCCO)c21 | 28.4 µM | 16.1 µM | 13.9 µM | 16.6 µM | 15.5 µM | 15.5 µM | 44.7 µM | 23.1 µM | 30.8 µM | 31.1 µM |  |  |  |  |  |  |  |  |  | 
Cn1cnc([N+](=O)[O-])c1Sc1ccccn1 | > 100 µM | > 100 µM | > 100 µM | > 100 µM | > 100 µM | > 100 µM | > 100 µM | > 100 µM | > 100 µM | > 100 µM |  |  |  |  |  |  |  |  |  | 
C=CN1C(=O)OC(c2ccccc2)C1c1ccccc1 (stereo not given) | > 100 µM | > 100 µM | > 100 µM | > 100 µM | > 100 µM | > 100 µM | > 100 µM | > 100 µM | > 100 µM | > 100 µM | > 100 µM | > 100 µM | > 100 µM | > 100 µM | > 100 µM | > 100 µM | > 100 µM | > 100 µM |  | 
N#Cc1cccc(NC(=O)c2ccc(C(=O)O)c(C(=O)c3ccc(C(=O)O)c(C(=O)Nc4cccc(C#N)c4)c3)c2)c1 | > 100 µM | > 100 µM | > 100 µM | > 100 µM | > 100 µM | > 100 µM | > 100 µM | > 100 µM | > 100 µM | > 100 µM |  |  |  |  |  |  |  |  |  | 
CN(C)C[C@H]1CC[C@@H](CN(C)C)C1=O | 23.1 µM | 12.5 µM | 1.43 µM | 12.8 µM | 37.8 µM | 0.686 µM and 1.18 µM | 16.3 µM | 5.02 µM | 23.3 µM | > 50 µM |  |  |  |  | 0.269 µM | 1.23 µM |  |  |  | 
C/C1=C\[C@H](C)C[C@H](C)OC(=O)C[C@H](c2ccc(O)cc2)NC(=O)[C@@H](Cc2c(Br)[nH]c3ccccc23)N(C)C(=O)[C@H](C)NC(=O)[C@@H](C)C1 | 0.351 µM and 0.238 µM | 3.41 µM | > 49.8 µM | 0.384 µM and 0.255 µM | 23.6 µM | 0.908 µM and 1.13 µM | > 20.3 µM | > 23.7 µM | 0.795 µM and 0.163 µM | 0.137 µM and 0.5 µM | 0.0968 µM | 0.0299 µM | 0.0275 µM | 0.0126 µM | 0.0344 µM | 0.114 µM | 0.0339 µM | 0.0703 µM | 0.229 µM | 0.261 µM
O=C(c1cc(O)ccc1O)c1ccccc1C(Cl)(Cl)Cl | > 100 µM | > 100 µM | > 100 µM | > 100 µM | > 100 µM | > 100 µM | > 100 µM | > 100 µM | > 100 µM | > 100 µM |  |  |  |  |  |  |  |  |  | 
Cc1ccc(S(=O)(=O)N(/N=C(\N)Oc2ccc(Cl)cc2)C(=N)Oc2ccc(Cl)cc2)cc1 | > 100 µM | > 100 µM | > 100 µM | > 100 µM | > 100 µM | > 100 µM | > 100 µM | > 100 µM | > 100 µM | > 100 µM |  |  |  |  |  |  |  |  |  | 
Cc1nc(C)c(C(=O)Nc2cccc3c2C(=O)NC3=O)cc1C(=O)Nc1cccc2c1C(=O)NC2=O | > 100 µM | > 100 µM | > 100 µM | > 100 µM | > 100 µM | > 100 µM | > 100 µM | > 100 µM | > 100 µM | > 100 µM |  |  |  |  |  |  |  |  |  | 
Nc1nc2c(ncn2C2OC(CO)C(O)C2N)c(=O)[nH]1 (stereo not given) | > 100 µM | > 100 µM | > 100 µM | > 100 µM | > 100 µM | > 100 µM | > 100 µM | > 100 µM | > 100 µM | > 100 µM |  |  |  |  |  |  |  |  |  | 
N/C(=N\NS(=O)(=O)c1ccccc1)Oc1ccc(Cl)cc1 | > 100 µM | > 100 µM | > 100 µM | > 100 µM | > 100 µM | > 100 µM | > 100 µM | > 100 µM | > 100 µM | > 100 µM |  |  |  |  |  |  |  |  |  | 
Cc1cnc[nH]c1=O | > 100 µM | > 100 µM | > 100 µM | > 100 µM | > 100 µM | > 100 µM | > 100 µM | > 100 µM | > 100 µM | > 100 µM |  |  |  |  |  |  |  |  |  | 
